Usually inhibition stands for how much of the control response was suppressed.

SMILES strings stand for the structures.

Common to all, as to assay: Kinobeads competition binding, L-363 cell lysate
Holding throughout (design): endogenous in cells
Conditions in all cases: 10 μM free compound, L-363 lysate

The target of one experiment is MLK3 (Homo sapiens, UniProt Q16584). Summed up: (§1)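 Bead-bound proteins were quantified by tandem mass spectrometry after iTRAQ labeling. Beforehand, lysate from proteasome-inhibited L-363 cells had been incubated with the free compound at 10 μM, with a solvent-only aliquot as reference.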
The next experiment has as its target FER (Homo sapiens, UniProt P16591). In outline:
as §1

For a further experiment, the target named is CaMK2d (Homo sapiens, UniProt Q13557). In outline: as §1
The target in another experiment is PYK2 (Homo sapiens, UniProt Q14289). In outline:
as §1

In a further experiment the target is T1, MAP3K5 (Homo sapiens, UniProt Q99683).
T1 sequence (Q99683 1-1374): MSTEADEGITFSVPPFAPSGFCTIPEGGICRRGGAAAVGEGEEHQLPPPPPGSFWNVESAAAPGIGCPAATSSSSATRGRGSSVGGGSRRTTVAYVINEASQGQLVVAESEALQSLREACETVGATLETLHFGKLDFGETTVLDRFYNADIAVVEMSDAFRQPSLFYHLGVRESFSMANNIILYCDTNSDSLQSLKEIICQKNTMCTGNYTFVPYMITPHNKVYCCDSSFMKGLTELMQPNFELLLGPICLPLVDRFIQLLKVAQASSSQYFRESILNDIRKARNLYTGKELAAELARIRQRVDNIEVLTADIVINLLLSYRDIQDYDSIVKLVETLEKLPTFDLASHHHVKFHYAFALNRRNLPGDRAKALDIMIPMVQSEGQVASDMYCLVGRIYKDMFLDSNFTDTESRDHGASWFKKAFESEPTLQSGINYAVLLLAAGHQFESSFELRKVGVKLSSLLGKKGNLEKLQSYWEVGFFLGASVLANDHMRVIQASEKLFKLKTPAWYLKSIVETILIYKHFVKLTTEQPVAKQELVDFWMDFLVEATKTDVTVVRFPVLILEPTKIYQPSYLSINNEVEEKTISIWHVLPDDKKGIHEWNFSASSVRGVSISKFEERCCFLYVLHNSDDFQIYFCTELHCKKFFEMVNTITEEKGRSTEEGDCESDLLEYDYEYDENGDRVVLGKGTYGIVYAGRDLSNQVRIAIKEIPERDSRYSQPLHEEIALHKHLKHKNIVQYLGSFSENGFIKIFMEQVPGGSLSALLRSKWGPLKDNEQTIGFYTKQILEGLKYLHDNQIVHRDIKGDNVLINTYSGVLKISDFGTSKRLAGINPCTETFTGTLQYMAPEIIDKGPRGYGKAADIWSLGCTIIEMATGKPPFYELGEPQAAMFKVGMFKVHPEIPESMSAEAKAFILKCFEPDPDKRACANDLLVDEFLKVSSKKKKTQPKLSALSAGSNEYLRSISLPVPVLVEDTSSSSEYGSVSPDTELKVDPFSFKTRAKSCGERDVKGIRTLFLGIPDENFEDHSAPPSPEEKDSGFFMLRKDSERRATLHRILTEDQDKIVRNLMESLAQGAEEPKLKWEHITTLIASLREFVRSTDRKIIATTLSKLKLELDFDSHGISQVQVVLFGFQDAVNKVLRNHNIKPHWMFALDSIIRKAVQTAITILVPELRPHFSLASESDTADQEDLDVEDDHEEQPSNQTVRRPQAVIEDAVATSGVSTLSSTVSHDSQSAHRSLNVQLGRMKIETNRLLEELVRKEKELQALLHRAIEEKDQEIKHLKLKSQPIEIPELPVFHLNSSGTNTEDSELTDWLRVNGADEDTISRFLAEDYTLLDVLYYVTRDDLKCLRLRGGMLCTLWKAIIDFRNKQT
Summed up:
as §1

The next experiment addresses CK2a2 (Homo sapiens, UniProt P19784). In outline: as §1
The target in a further experiment is T2, AurA (Homo sapiens, UniProt O14965).
T2 sequence (O14965 1-403): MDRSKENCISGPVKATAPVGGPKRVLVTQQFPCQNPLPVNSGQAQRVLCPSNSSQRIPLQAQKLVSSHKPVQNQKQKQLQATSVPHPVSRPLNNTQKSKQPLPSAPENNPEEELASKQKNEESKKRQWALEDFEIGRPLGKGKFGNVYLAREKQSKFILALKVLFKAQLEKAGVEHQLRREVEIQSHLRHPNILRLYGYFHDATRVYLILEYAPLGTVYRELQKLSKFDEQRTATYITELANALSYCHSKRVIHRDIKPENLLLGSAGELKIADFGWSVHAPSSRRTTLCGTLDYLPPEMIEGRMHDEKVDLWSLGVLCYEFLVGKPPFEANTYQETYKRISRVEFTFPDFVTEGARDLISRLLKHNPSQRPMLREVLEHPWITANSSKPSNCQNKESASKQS
In outline: as §1

The compound `CS(=O)(=O)Nc1ccccc1Nc1nc(Nc2cccc(OCCN)c2)ncc1Cl` [CZC31326, N-(2-(2-(3-(2-aminoethoxy)phenylamino)-5-chloropyrimidin-4-ylamino)phenyl)methanesulfonamide] gave a Competition % at MLK3 of 97.5%. The inhibition at 10 µM was 97.8% on FER; 78% at CaMK2d; 96.1% at PYK2; 91.3% at MAP3K5; 97.5% at CK2a2; 97% on AurA.

The values above are taken from patent US20120270237A9, “METHODS FOR THE IDENTIFICATION OF KINASE INTERACTING MOLECULES AND FOR THE PURIFICATION OF KINASE PROTEINS” (Cellzone AG, priority 2009, published 2012).
